Experimental findings from US12264156B2, “Compounds and pharmaceutical compositions thereof for the treatment of diseases” (GALAPAGOS NV, priority 2018, dated 2025) are described below.

Assay [1] deals with LPS-induced TNFα in monocytes. In words: Monocytes assay: LPS-triggered TNFα (ELISA). In kind it is cell-based, human. To be noted: Homo sapiens, Monocyte, LPS 200 ng/mL, supernatant after 4 h. As for the experimental part:
SIK inhibition inhibits TNFα and increases IL-10 release in LPS triggered monocyte-derived macrophages (MdM) and dendritic cells (MdDCs) (Clark et al. 2012; Sundberg et al. 2014; Ozanne et al. 2015). This assay evaluates illustrative compounds of the invention for their inhibition of LPS-induced TNFα and LPS triggered IL-10 secretion in monocytes.
PBMCs are isolated from human blood samples (buffycoats). The buffy coat is aseptically transferred into a 50 mL Falcon tube, and diluted 1/2 in PBS. Falcon tubes are filled with 20 mL Lymphoprep™, on top of which 25 mL of the buffy coat is carefully added, tubes are centrifuged for 35 min at 400 g in temperature controlled centrifuge, without brake, at 25° C. PBMCs are aspirated from the white interface layer between sample and Lymphoprep™. PBMCs are washed five times in PBS. Cells are resuspended in RPMI 1640 complete medium supplemented with 10% FBS, 1% P/S, and cell density is determined using a hematologic analyzer (Sysmex XS-500i).
PBMCs are centrifuged at 300×g for 10 min and resuspended at a density of 1.0*10^7 cells/80 μL Miltenyi buffer (PBS, pH 7.4, 1% FBS, 2 mM EDTA).
Starting from this point of the protocol all steps are performed on ice. 20 μL of CD14+ micro-beads are added per 1.0*10^7 cells, the tube is mixed and incubated for 15 min in the fridge at 4° C. Cell suspension volume is adjusted to total volume of 100 mL using Miltenyi buffer, mixed gently and subsequently centrifuged for 10 min at 300×g. Supernantant is discarded and cell pellet is resuspended in 12 mL of Miltenyi buffer.
Four LS columns are placed in the MACS Separator (magnet) from Miltenyi Biotec, and are prewet by rinsing with 3 mL of MACS buffer per column. Three mL of cell suspension is added onto the column (max 1*10^8 of labelled cells/column), and columns are subsequently washed 3 times with 3 mL of Miltenyi buffer.
The columns are removed from the magnets, and 5 mL of Miltenyi buffer are added to the column to flush out the CD14+ fraction by pushing the plunger into the column. The flushed fractions are collected in a fresh 50 mL Falcon and volume is adjusted to 30 mL using Miltenyi buffer, cells are centrifuged for 10 min at 300×g. The obtained cell pellet is resuspended in 10 mL RPMI w/o FBS, and cell density is determined using a hematologic analyser (Sysmex XS-500i). 100 000 cells are seeded in 80 μL per well of a 96-well plate in RPMI 1640 medium supplemented with 10% FBS, 1% P/S.
A compound dilution plate is made in 100% DMSO by 3-fold dilution of 10 mM stock solution. An intermediate dilution plate (10× final concentration) is made by diluting the compound dilution plate 50-fold in RPMI medium.
10 μL of the 10× final concentration compound is added to the cells and incubated for 1 h at 37° C. before addition of trigger. No trigger conditions/trigger conditions are spiked with equal final DMSO concentrations of 0.2% DMSO. 10 μL of 10×LPS (final conc. 200 ng/mL) solution are added to all wells except for the ‘no trigger wells’ where 10 μL medium is added. Supernatant is collected after 4 h of LPS triggering.
A Lumitrac 600 Greiner 384-well plate is coated with 40 μL of capture antibody (BD Pharmingen, Cat #551220) reaching a final concentration of 1 μg/mL in 1×PBS and stored overnight at 4° C.
The plate is then washed once with PBST (PBS+0.05% Tween20) and once with PBS followed by the addition of 100 μL of blocking buffer (1% Bovine Serum Albumin (BSA)−5% Sucrose) and plates are sealed and incubated for at least 4 h at RT. After washing the plate once with PBST and once with PBS, […]. Plates are washed twice with PBST, and once with PBS, after which 35 μL of the detection antibody is added (final concentration 0.25 μg/mL diluted in dilution buffer) and plates are incubated for at least 2 h at RT. […]
A general note: In an ELISA, binding on a coated surface is turned into a signal by an enzyme label.

For another assay, the target named is T1, SIK3 (Homo sapiens, UniProt Q9Y2K2).
T1 construct: purchased SignalChem S12-11G-100
In words: ADP-Glo kinase assay, SIK3. Particulars: ADP-Glo SIK kinase assay. In kind it is biochemical. In short, it runs like this: (§1)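 Wells with 1% DMSO or 10 μM staurosporine (final) define the control window. The kinase reaction with substrate and ATP runs 120 min at RT, followed by ADP-Glo detection: ATP depletion (40 min) and ADP-derived luminescence (30 min).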
(In general: ADP-Glo first removes unused ATP, then detects ADP through luciferase.)

For another assay, the target named is T2, SIK1 (Homo sapiens, UniProt P57059).
T2 construct: purchased Carna Biosciences 02-131
In words: ADP-Glo kinase assay, SIK1. Particulars: ADP-Glo SIK kinase assay. The assay is classed as biochemical. The method, boiled down:
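ADP-Glo, RT throughout. Enz/substrate + ATP, 120 min; ADP-Glo reagent 40 min (ATP depletion); detection reagent 30 min; luminescence read. Neg ctrl 1% DMSO, pos ctrl 10 μM staurosporine, final concs.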

The test system of assay [2] is LPS triggered IL-10 secretion in monocytes. In words: Monocytes assay: LPS-triggered IL-10 (ELISA). In kind it is cell-based, human. Particulars: LPS 200 ng/mL, supernatant after 4 h, maximal fold change vs LPS only. In short, it runs like this: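 Human CD14+ monocytes, magnetically isolated from buffy-coat PBMCs, were seeded at 100 000 cells/well and preincubated with compound for 1 h at 37° C (0.2% DMSO). LPS was then added at a final 200 ng/mL for 4 h. Supernatant IL-10 was quantified by chemiluminescent sandwich ELISA against a standard curve.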

Another assay deals with T3, SIK2 (Homo sapiens, UniProt Q9H0K1).
T3 construct: purchased ThermoFisher Scientific PV4792
In words: ADP-Glo kinase assay, SIK2. Particulars: ADP-Glo SIK kinase assay. The assay is classed as biochemical. In short, it runs like this: as §1

As usually defined, the EC50 is the concentration needed to bring the measured effect to its halfway point. For orientation: IC50 means the point on the concentration scale where inhibition reaches its midpoint. The low end stands for higher potency, the high end for lower potency.

T2 sequence (P57059 whole entry): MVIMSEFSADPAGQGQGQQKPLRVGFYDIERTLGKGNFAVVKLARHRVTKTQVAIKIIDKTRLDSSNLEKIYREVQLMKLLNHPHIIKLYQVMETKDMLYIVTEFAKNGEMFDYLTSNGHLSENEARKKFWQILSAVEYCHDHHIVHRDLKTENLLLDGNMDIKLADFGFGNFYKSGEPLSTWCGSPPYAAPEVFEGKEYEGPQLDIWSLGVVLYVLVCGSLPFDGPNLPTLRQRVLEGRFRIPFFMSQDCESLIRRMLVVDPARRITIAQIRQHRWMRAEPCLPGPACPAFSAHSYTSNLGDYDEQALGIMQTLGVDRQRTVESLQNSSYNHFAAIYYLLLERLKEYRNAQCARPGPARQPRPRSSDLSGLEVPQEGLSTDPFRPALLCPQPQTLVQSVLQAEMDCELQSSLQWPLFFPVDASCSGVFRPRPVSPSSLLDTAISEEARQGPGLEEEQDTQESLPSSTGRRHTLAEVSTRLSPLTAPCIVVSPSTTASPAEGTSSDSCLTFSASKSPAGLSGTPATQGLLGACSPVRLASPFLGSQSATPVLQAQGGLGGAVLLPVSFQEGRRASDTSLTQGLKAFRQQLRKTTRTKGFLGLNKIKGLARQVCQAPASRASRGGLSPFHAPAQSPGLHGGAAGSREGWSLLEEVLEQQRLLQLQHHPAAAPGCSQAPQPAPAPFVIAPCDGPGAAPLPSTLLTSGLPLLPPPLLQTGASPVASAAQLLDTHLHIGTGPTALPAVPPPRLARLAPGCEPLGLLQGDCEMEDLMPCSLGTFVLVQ
T1 sequence (Q9Y2K2 whole entry): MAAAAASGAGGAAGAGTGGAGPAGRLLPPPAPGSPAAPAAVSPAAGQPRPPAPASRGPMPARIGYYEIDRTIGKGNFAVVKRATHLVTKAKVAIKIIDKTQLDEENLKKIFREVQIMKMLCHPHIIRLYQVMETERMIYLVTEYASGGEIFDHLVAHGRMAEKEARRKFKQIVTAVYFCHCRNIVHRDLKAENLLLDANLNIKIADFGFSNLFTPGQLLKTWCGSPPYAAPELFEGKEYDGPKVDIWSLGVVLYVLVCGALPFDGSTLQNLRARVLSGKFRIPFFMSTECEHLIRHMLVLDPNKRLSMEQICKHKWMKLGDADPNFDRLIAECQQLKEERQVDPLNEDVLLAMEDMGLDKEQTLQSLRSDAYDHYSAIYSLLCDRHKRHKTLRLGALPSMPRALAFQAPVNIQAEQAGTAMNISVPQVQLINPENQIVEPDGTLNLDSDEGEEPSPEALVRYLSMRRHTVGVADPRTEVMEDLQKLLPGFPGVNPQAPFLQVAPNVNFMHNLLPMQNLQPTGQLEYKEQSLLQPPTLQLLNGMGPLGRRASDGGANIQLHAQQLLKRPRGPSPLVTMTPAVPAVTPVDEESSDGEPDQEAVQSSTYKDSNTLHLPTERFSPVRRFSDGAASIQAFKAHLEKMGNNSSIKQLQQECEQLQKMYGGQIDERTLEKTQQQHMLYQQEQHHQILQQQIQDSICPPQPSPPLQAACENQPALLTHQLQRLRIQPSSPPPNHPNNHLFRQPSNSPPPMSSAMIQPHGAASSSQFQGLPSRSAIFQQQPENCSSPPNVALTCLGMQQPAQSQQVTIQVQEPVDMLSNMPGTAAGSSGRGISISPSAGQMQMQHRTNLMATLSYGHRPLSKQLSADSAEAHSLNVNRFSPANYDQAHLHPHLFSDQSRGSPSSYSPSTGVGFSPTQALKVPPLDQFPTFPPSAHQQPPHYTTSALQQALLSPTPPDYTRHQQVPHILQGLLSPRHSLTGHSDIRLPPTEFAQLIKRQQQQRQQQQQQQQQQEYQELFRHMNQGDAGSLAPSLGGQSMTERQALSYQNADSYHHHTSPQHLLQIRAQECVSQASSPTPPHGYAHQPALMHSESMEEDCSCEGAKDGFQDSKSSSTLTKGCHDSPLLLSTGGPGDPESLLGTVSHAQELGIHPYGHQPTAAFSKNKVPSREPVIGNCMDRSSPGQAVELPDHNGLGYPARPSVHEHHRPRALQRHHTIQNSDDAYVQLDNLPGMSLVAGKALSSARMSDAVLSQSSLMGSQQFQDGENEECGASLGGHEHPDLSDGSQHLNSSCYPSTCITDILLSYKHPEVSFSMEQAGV
T3 sequence (Q9H0K1 whole entry): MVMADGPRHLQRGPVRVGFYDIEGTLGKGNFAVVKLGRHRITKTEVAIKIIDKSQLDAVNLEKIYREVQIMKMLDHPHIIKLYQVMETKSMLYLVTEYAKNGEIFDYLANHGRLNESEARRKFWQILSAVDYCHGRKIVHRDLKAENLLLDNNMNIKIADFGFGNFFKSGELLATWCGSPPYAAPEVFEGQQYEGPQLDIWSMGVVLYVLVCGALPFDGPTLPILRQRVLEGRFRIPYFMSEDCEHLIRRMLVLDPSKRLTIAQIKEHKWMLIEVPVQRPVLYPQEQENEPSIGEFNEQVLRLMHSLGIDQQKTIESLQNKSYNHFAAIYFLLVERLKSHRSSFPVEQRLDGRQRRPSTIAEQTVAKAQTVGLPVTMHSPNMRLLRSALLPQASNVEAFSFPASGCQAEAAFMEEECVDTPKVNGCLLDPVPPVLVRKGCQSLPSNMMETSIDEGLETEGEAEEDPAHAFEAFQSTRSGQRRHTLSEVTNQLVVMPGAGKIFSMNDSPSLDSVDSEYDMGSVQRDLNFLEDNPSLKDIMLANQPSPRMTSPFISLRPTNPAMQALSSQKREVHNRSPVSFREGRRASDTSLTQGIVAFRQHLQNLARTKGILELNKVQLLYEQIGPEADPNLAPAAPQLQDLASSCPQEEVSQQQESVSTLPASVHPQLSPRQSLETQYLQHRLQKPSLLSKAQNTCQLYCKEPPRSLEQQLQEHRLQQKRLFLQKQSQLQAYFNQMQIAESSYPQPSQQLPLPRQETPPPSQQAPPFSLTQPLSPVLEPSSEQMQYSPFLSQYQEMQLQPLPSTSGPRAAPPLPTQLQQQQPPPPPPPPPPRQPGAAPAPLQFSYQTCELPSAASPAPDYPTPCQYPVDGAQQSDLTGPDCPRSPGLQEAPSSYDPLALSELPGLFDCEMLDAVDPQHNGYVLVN

Turning to `COc1cc(-c2cnc3cc(OCCCN4CCC45CCC5)ccn23)cc(OC(F)F)c1C(=O)NC1CC1` [compound 302, 4-[7-[3-(1-azaspiro[3.3]heptan-1-yl)propoxy]imidazo[1,2-a]pyridin-3-yl]-N-cyclopropyl-2-(difluoromethoxy)-6-methoxy-benzamide], the EC50 in assay [1] (4 h) lay within 0.1 to 100 nM. Further, the IC50 against SIK3 fell in the range of 0.01 to 10 nM; at SIK1, 10 to 100 nM; on SIK2, 0.01 to 10 nM. The “IL-10 FCmax median” value in assay [2] is listed as “+++ (>4.5)”.

Regarding `COc1cc(-c2cnc3cc(OCCCN4CCCCC4)ccn23)cc(OC(F)F)c1C(=O)N1CC(O)(C(F)F)C1` [compound 358, [2-(difluoromethoxy)-6-methoxy-4-[7-[3-(1-piperidyl)propoxy]imidazo[1,2-a]pyridin-3-yl]phenyl]-[3-(difluoromethyl)-3-hydroxy-azetidin-1-yl]methanone], the concentration for a half-maximal effect (EC50) in assay [1] (4 h) lay in the range of 100 to 1000 nM. Further, the IC50 on SIK3 fell in the range of 0.01 to 10 nM; against SIK1, 10 to 100 nM; at SIK2 it was 0.01 to 10 nM. Further, in assay [2], the “IL-10 FCmax median” value is “+++ (>4.5)”.

Compound `COc1cc(-c2cnc3cc(OCC4CCCN(C(C)C)C4)ccn23)cc(OC(F)F)c1C(=O)NC1CC1` (stereo not shown) [compound 280, N-cyclopropyl-2-(difluoromethoxy)-4-[7-[(1-isopropyl-3-piperidyl)methoxy]imidazo [1,2-a]pyridin-3-yl]-6-methoxy-benzamide] displayed a half-maximal effective concentration (EC50) in assay [1] (4 h) of 0.1 to 100 nM. In addition, the IC50 against SIK3, against SIK1 and at SIK2 was 0.01 to 10 nM in each case. For the same compound, in assay [2], the “IL-10 FCmax median” value is on record as “++ (>1.5-4.5)”.

For `COc1cc(-c2cnc3cc(OCCCN4CC5(CCC5)C4)ccn23)cc(OC(F)F)c1C(=O)NC1CC1` [compound 293, 4-[7-[3-(2-azaspiro[3.3]heptan-2-yl)propoxy]imidazo[1,2-a]pyridin-3-yl]-N-cyclopropyl-2-(difluoromethoxy)-6-methoxy-benzamide], the EC50 in assay [1] (4 h) lay in the range of 0.1 to 100 nM. Also, the IC50 at SIK3 was in the range of 0.01 to 10 nM; at SIK1, 10 to 100 nM; against SIK2, 0.01 to 10 nM. The “IL-10 FCmax median” value in assay [2] is reported as “+++ (>4.5)”.

The compound `COc1cc(-c2cnc3cc(OCCCN4CCC(F)(C(=O)O)CC4)ccn23)cc(OC(F)F)c1C(=O)NC1CC1` [Cpd 366, 1-[3-[3-[4-(cyclopropylcarbamoyl)-3-(difluoromethoxy)-5-methoxy-phenyl]imidazo[1,2-a]pyridin-7-yl]oxypropyl]-4-fluoro-piperidine-4-carboxylic acid] displayed a 50% effective concentration (EC50) in assay [1] (4 h) of 1000 to 5000 nM. The results for the IC50 against SIK3, against SIK1 and against SIK2 were 0.01 to 10 nM, 10 to 100 nM and 0.01 to 10 nM, respectively. Besides, the “IL-10 FCmax median” value in assay [2] is “++ (>1.5-4.5)”.

Take `COc1cc(-c2cnc3cc(OCCCN4CCC(O)C4)ccn23)cc(OC(F)F)c1C(=O)NC1CC1` (stereo not shown) [compound 319, N-cyclopropyl-2-(difluoromethoxy)-4-[7-[3-(3-hydroxypyrrolidin-1-yl)propoxy]imidazo[1,2-a]pyridin-3-yl]-6-methoxy-benzamide]: in assay [1] (4 h), the EC50 was 100 to 1000 nM. In addition, the IC50 at SIK3 was 0.01 to 10 nM; at SIK1, 10 to 100 nM; against SIK2 it was 0.01 to 10 nM. Besides, in assay [2], the “IL-10 FCmax median” value is “++ (>1.5-4.5)”.

In the case of `COc1cc(-c2cnc3cc(OCC4CN(CCC#N)C4)ccn23)cc(OC(F)F)c1C(=O)NC1CC1` [Cpd 323, 4-[7-[[1-(2-cyanoethyl)azetidin-3-yl]methoxy]imidazo[1,2-a]pyridin-3-yl]-N-cyclopropyl-2-(difluoromethoxy)-6-methoxy-benzamide], in assay [1] (4 h), the EC50 lay in the range of 0.1 to 100 nM. Further, the concentration for half-maximal inhibition (IC50) against SIK3 fell in the range of 0.01 to 10 nM; at SIK1, 10 to 100 nM; against SIK2, 0.01 to 10 nM. The “IL-10 FCmax median” value in assay [2] is recorded as “+++ (>4.5)”.

As to `COc1cc(-c2cnc3cc(OCCCN4CCC45COC5)ccn23)cc(OC(F)F)c1C(=O)NC1CC1` [compound 300, N-cyclopropyl-2-(difluoromethoxy)-6-methoxy-4-[7-[3-(6-oxa-1-azaspiro[3.3]heptan-1-yl)propoxy]imidazo[1,2-a]pyridin-3-yl]benzamide], the EC50 in assay [1] (4 h) fell in the range of 0.1 to 100 nM. Also, the results for the IC50 against SIK3, against SIK1 and against SIK2 were 0.01 to 10 nM, 10 to 100 nM and 0.01 to 10 nM, respectively. For the same compound, the “IL-10 FCmax median” value in assay [2] is listed as “+++ (>4.5)”.

For `COc1cc(-c2cnc3cc(OCCCN4CC5CC4CO5)ccn23)cc(OC(F)F)c1C(=O)NC1CC1` (stereo not shown) [compound 284, N-cyclopropyl-2-(difluoromethoxy)-6-methoxy-4-[7-[3-(2-oxa-5-azabicyclo[2.2.1]heptan-5-yl)propoxy]imidazo[1,2-a]pyridin-3-yl]benzamide], the EC50 in assay [1] (4 h) lay within 0.1 to 100 nM. Besides, the IC50 against SIK3, against SIK1 and at SIK2 was 0.01 to 10 nM in each case. In addition, the “IL-10 FCmax median” value in assay [2] is on record as “++ (>1.5-4.5)”.

For the compound `COc1cc(-c2cnc3cc(OCCCN4C5CCC4COC5)ccn23)cc(OC(F)F)c1C(=O)NC1CC1` [compound 292, N-cyclopropyl-2-(difluoromethoxy)-6-methoxy-4-[7-[3-(3-oxa-8-azabicyclo[3.2.1]octan-8-yl)propoxy]imidazo[1,2-a]pyridin-3-yl]benzamide], the EC50 in assay [1] lay within 0.1 to 100 nM. The IC50 against SIK3 lay within 0.01 to 10 nM; against SIK1, 10 to 100 nM; at SIK2 it was 0.01 to 10 nM. Further, the “IL-10 FCmax median” value in assay [2] was “+++ (>4.5)”.

In the case of `CCOC(=O)C1(O)CCN(CC(O)COc2ccn3c(-c4cc(OC)c(C(=O)NC5CC5)c(OC(F)F)c4)cnc3c2)CC1` (stereo not shown) [compound 383, ethyl 1-[3-[3-[4-(cyclopropylcarbamoyl)-3-(difluoromethoxy)-5-methoxy-phenyl]imidazo[1,2-a]pyridin-7-yl]oxy-2-hydroxy-propyl]-4-hydroxy-piperidine-4-carboxylate], in assay [1] (4 h), the EC50 lay in the range of 100 to 1000 nM. Also, the IC50 lay in the range of 0.01 to 10 nM against SIK3, 10 to 100 nM against SIK1 and 0.01 to 10 nM at SIK2. For the same compound, the “IL-10 FCmax median” value in assay [2] was “++ (>1.5-4.5)”.
